{"source": "paper PMC4503722", "about": "“Novel Phenotypic Outcomes Identified for a Public Collection of Approved Drugs from a Publicly Accessible Panel of Assays” (PLoS ONE, 2015)", "key": {"[1]": {"test_system": "SW480", "test": "cells", "assay_type": "cell-based", "conditions": "basal; for Basal_Viability ATP SW480 IC50/EC50 / IC50: assay number 24; for IC50: read-out: Basal_Viability ATP SW480 summarized IC50"}, "[2]": {"test_system": "HCT116", "test": "cells", "assay_type": "cell-based", "conditions": "basal; for Basal_Viability ATP HCT116 IC50/EC50 / IC50: assay number 25; for IC50: read-out: Basal_Viability ATP HCT116 summarized IC50"}, "[3]": {"test_system": "SNU-C1", "test": "cells", "assay_type": "cell-based", "conditions": "basal; for Basal_Viability ATP SNU-C1 IC50/EC50 / IC50: assay number 30; for IC50: read-out: Basal_Viability ATP SNU-C1 summarized IC50"}, "[4]": {"test_system": "endothelial tube formation in co-cultures of ECFCs and ADSCs treated with VEGF", "test": "cells", "assay_type": "cell-based, human", "conditions": "for IC50: read-out: VEGF_ADSC\\ECFC Angio CD31 TubeArea summarized IC50"}, "[5]": {"test_system": "RKO", "test": "cells", "assay_type": "cell-based", "conditions": "basal; for Basal_Viability ATP RKO IC50/EC50 / IC50: assay number 29; for IC50: read-out: Basal_Viability ATP RKO summarized IC50"}, "[6]": {"test_system": "ECFC/ADSC co-culture cell nuclei number", "conditions": "for IC50: read-out: VEGF_ADSC\\ECFC Angio Hoechst NucArea summarized IC50"}, "[7]": {"test_system": "DLD-1", "test": "cells", "assay_type": "cell-based", "conditions": "basal; for Basal_Viability ATP DLD-1 IC50/EC50 / IC50: assay number 23; for IC50: read-out: Basal_Viability ATP DLD-1 summarized IC50"}, "[8]": {"test_system": "Colo320", "test": "cells", "assay_type": "cell-based", "conditions": "basal; for Basal_Viability ATP Colo 320 IC50/EC50 / IC50: assay number 27; for IC50: read-out: Basal_Viability ATP Colo 320 summarized IC50"}, "[9]": {"test_system": "HT-29", "test": "cells", "assay_type": "cell-based", "conditions": "basal; for Basal_Viability ATP HT-29 IC50/EC50 / IC50: assay number 28; for IC50: read-out: Basal_Viability ATP HT-29 summarized IC50"}, "[10]": {"test_system": "HCT116 cells treated with a GSK3β inhibitor", "test": "cells", "assay_type": "cell-based", "conditions": "for GSK3b inh pretreated_Viability ATP HCT116 IC50/EC50 / IC50: assay number 26, GSK3b inhibitor pretreated; for IC50: read-out: GSK3b inh pretreated_Viability ATP HCT116 summarized IC50"}}}
{"smiles": "CSc1ccc2c(c1)N(CCC1CCCCN1C)c1ccccc1S2", "note": "(stereo not shown) [NCGC00016059-13]", "values": [{"measurement": "Basal_Viability ATP SW480 IC50/EC50", "setting": "[1]", "result": 3.7076, "unit": "µM"}, {"measurement": "Basal_Viability ATP HCT116 IC50/EC50", "setting": "[2]", "result": "> 20", "unit": "µM"}, {"measurement": "Basal_Viability ATP SNU-C1 IC50/EC50", "setting": "[3]", "result": 2.905, "unit": "µM"}, {"measurement": "VEGF_ADSC\\ECFC Angio CD31 TubeArea IC50/EC50", "setting": "[4]", "result": "> 10", "unit": "µM"}, {"measurement": "Basal_Viability ATP RKO IC50/EC50", "setting": "[5]", "result": 5.4868, "unit": "µM"}, {"measurement": "VEGF_ADSC\\ECFC Angio Hoechst NucArea IC50/EC50", "setting": "[6]", "result": 9.242, "unit": "µM"}, {"measurement": "Basal_Viability ATP DLD-1 IC50/EC50", "setting": "[7]", "result": "> 20", "unit": "µM"}, {"measurement": "Basal_Viability ATP Colo 320 IC50/EC50", "setting": "[8]", "result": 7.9244, "unit": "µM"}, {"measurement": "Basal_Viability ATP HT-29 IC50/EC50", "setting": "[9]", "result": 5.8969, "unit": "µM"}, {"measurement": "GSK3b inh pretreated_Viability ATP HCT116 IC50/EC50", "setting": "[10]", "result": 8.1146, "unit": "µM"}]}
{"smiles": "COc1ccc2c(c1)c1c3n2CCN(C)C3=NCC1", "note": "[NCGC00072886-03]", "values": [{"measurement": "Basal_Viability ATP SW480 IC50/EC50", "setting": "[1]", "result": "> 20", "unit": "µM"}, {"measurement": "Basal_Viability ATP HCT116 IC50/EC50", "setting": "[2]", "result": "> 20", "unit": "µM"}, {"measurement": "Basal_Viability ATP SNU-C1 IC50/EC50", "setting": "[3]", "result": "> 20", "unit": "µM"}, {"measurement": "VEGF_ADSC\\ECFC Angio CD31 TubeArea IC50/EC50", "setting": "[4]", "result": "> 10", "unit": "µM"}, {"measurement": "Basal_Viability ATP RKO IC50/EC50", "setting": "[5]", "result": "> 20", "unit": "µM"}, {"measurement": "VEGF_ADSC\\ECFC Angio Hoechst NucArea IC50/EC50", "setting": "[6]", "result": "> 10", "unit": "µM"}, {"measurement": "Basal_Viability ATP DLD-1 IC50/EC50", "setting": "[7]", "result": "> 20", "unit": "µM"}, {"measurement": "Basal_Viability ATP Colo 320 IC50/EC50", "setting": "[8]", "result": "> 20", "unit": "µM"}, {"measurement": "Basal_Viability ATP HT-29 IC50/EC50", "setting": "[9]", "result": "> 20", "unit": "µM"}, {"measurement": "GSK3b inh pretreated_Viability ATP HCT116 IC50/EC50", "setting": "[10]", "result": "> 20", "unit": "µM"}]}
{"smiles": "CNC(=O)Oc1cccc2ccccc12", "note": "[NCGC00090680-06]", "values": [{"measurement": "IC50", "setting": "[1]", "result": "> 20", "unit": "µM"}, {"measurement": "IC50", "setting": "[2]", "result": "> 20", "unit": "µM"}, {"measurement": "IC50", "setting": "[3]", "result": "> 20", "unit": "µM"}, {"measurement": "IC50", "setting": "[4]", "result": "> 10", "unit": "µM"}, {"measurement": "IC50", "setting": "[5]", "result": "> 20", "unit": "µM"}, {"measurement": "IC50", "setting": "[6]", "result": "> 10", "unit": "µM"}, {"measurement": "IC50", "setting": "[7]", "result": "> 20", "unit": "µM"}, {"measurement": "IC50", "setting": "[8]", "result": "> 20", "unit": "µM"}, {"measurement": "IC50", "setting": "[9]", "result": "> 20", "unit": "µM"}, {"measurement": "IC50", "setting": "[10]", "result": "> 20", "unit": "µM"}]}
{"smiles": "COC(=O)c1ccccc1C(=O)OC", "note": "[NCGC00090692-06]", "values": [{"measurement": "IC50", "setting": "[1]", "result": "> 20", "unit": "µM"}, {"measurement": "IC50", "setting": "[2]", "result": "> 20", "unit": "µM"}, {"measurement": "IC50", "setting": "[3]", "result": "> 20", "unit": "µM"}, {"measurement": "IC50", "setting": "[4]", "result": "> 10", "unit": "µM"}, {"measurement": "IC50", "setting": "[5]", "result": "> 20", "unit": "µM"}, {"measurement": "IC50", "setting": "[6]", "result": "> 10", "unit": "µM"}, {"measurement": "IC50", "setting": "[7]", "result": "> 20", "unit": "µM"}, {"measurement": "IC50", "setting": "[8]", "result": "> 20", "unit": "µM"}, {"measurement": "IC50", "setting": "[9]", "result": "> 20", "unit": "µM"}, {"measurement": "IC50", "setting": "[10]", "result": "> 20", "unit": "µM"}]}
{"smiles": "CC1=C(/C=C/C(C)=C/C=C/C(C)=C/C(=O)Nc2ccc(O)cc2)C(C)(C)CCC1", "note": "[NCGC00090752-12]", "values": [{"measurement": "IC50/EC50, Basal_Viability ATP SW480 (assay number 24)", "setting": "[1]", "result": 4.8504, "unit": "µM"}, {"measurement": "IC50/EC50, Basal_Viability ATP HCT116 (assay number 25)", "setting": "[2]", "result": 5.2999, "unit": "µM"}, {"measurement": "IC50/EC50, Basal_Viability ATP SNU-C1 (assay number 30)", "setting": "[3]", "result": 6.6943, "unit": "µM"}, {"measurement": "IC50/EC50, VEGF_ADSC\\ECFC Angio CD31 TubeArea (assay number 2)", "setting": "[4]", "result": 1.3414, "unit": "µM"}, {"measurement": "IC50/EC50, Basal_Viability ATP RKO (assay number 29)", "setting": "[5]", "result": 1.718, "unit": "µM"}, {"measurement": "IC50/EC50, VEGF_ADSC\\ECFC Angio Hoechst NucArea (assay number 3)", "setting": "[6]", "result": 6.2365, "unit": "µM"}, {"measurement": "IC50/EC50, Basal_Viability ATP DLD-1 (assay number 23)", "setting": "[7]", "result": 9.4899, "unit": "µM"}, {"measurement": "IC50/EC50, Basal_Viability ATP Colo 320 (assay number 27)", "setting": "[8]", "result": 3.2421, "unit": "µM"}, {"measurement": "IC50/EC50, Basal_Viability ATP HT-29 (assay number 28)", "setting": "[9]", "result": 2.1199, "unit": "µM"}, {"measurement": "IC50/EC50, GSK3b inh pretreated_Viability ATP HCT116 (assay number 26)", "setting": "[10]; GSK3b inh pretreated", "result": 4.9507, "unit": "µM"}]}
{"smiles": "CCCCCCCCOC(=O)c1ccccc1C(=O)OCCCCCCCC", "note": "[NCGC00090781-05]", "values": [{"measurement": "Basal_Viability ATP SW480 IC50/EC50", "setting": "[1]", "result": "> 20", "unit": "µM"}, {"measurement": "Basal_Viability ATP HCT116 IC50/EC50", "setting": "[2]", "result": "> 20", "unit": "µM"}, {"measurement": "Basal_Viability ATP SNU-C1 IC50/EC50", "setting": "[3]", "result": "> 20", "unit": "µM"}, {"measurement": "VEGF_ADSC\\ECFC Angio CD31 TubeArea IC50/EC50", "setting": "[4]", "result": "> 10", "unit": "µM"}, {"measurement": "Basal_Viability ATP RKO IC50/EC50", "setting": "[5]", "result": "> 20", "unit": "µM"}, {"measurement": "VEGF_ADSC\\ECFC Angio Hoechst NucArea IC50/EC50", "setting": "[6]", "result": "> 10", "unit": "µM"}, {"measurement": "Basal_Viability ATP DLD-1 IC50/EC50", "setting": "[7]", "result": "> 20", "unit": "µM"}, {"measurement": "Basal_Viability ATP Colo 320 IC50/EC50", "setting": "[8]", "result": "> 20", "unit": "µM"}, {"measurement": "Basal_Viability ATP HT-29 IC50/EC50", "setting": "[9]", "result": "> 20", "unit": "µM"}, {"measurement": "GSK3b inh pretreated_Viability ATP HCT116 IC50/EC50", "setting": "[10]", "result": "> 20", "unit": "µM"}]}
{"smiles": "CCOC(=O)c1ccccc1C(=O)OCC", "note": "[NCGC00090974-06]", "values": [{"measurement": "Basal_Viability ATP SW480 IC50/EC50", "setting": "[1]", "result": "> 20", "unit": "µM"}, {"measurement": "Basal_Viability ATP HCT116 IC50/EC50", "setting": "[2]", "result": "> 20", "unit": "µM"}, {"measurement": "Basal_Viability ATP SNU-C1 IC50/EC50", "setting": "[3]", "result": "> 20", "unit": "µM"}, {"measurement": "VEGF_ADSC\\ECFC Angio CD31 TubeArea IC50/EC50", "setting": "[4]", "result": "> 10", "unit": "µM"}, {"measurement": "Basal_Viability ATP RKO IC50/EC50", "setting": "[5]", "result": "> 20", "unit": "µM"}, {"measurement": "VEGF_ADSC\\ECFC Angio Hoechst NucArea IC50/EC50", "setting": "[6]", "result": "> 10", "unit": "µM"}, {"measurement": "Basal_Viability ATP DLD-1 IC50/EC50", "setting": "[7]", "result": "> 20", "unit": "µM"}, {"measurement": "Basal_Viability ATP Colo 320 IC50/EC50", "setting": "[8]", "result": "> 20", "unit": "µM"}, {"measurement": "Basal_Viability ATP HT-29 IC50/EC50", "setting": "[9]", "result": "> 20", "unit": "µM"}, {"measurement": "GSK3b inh pretreated_Viability ATP HCT116 IC50/EC50", "setting": "[10]", "result": "> 20", "unit": "µM"}]}
